Source: patent publication US20130164384A1, “METHODS OF TREATING BOWEL DISEASES BY ADMINISTERING A BOWEL CLEANSER AND AN ANTIBIOTIC” (Salix Pharmaceuticals, Ltd., priority 2008, published 2013)

Tested on: subjects diagnosed with dIBS
Assay: Designed study of 14-day oral rifaximin 550 mg TID for adequate relief of dIBS symptoms over four weeks
Type: in vivo, human
Details: oral 550 mg TID, 14-day course; 4 week study duration
Procedure: A study is designed to evaluate the efficacy of a 14-day course of oral rifaximin at 550 mg TID in providing adequate relief from diarrhea-associated IBS (dIBS) symptoms over four weeks. The study populations includes subjects diagnosed with dIBS according to Rome III criteria utilizing the subtype for dIBS from the Rome II criteria. Subjects have a mean abdominal pain and discomfort score <4.5, a mean bloating score of <4.5 and a mean stool score (loose and watery)<3.5 for at least 7 of the 10 days during screening. A measure of efficacy is based on subjects' answers to the Weekly Subject Global Assessment (SGA) questions over the 4 week study duration in relation to their IBS symptoms. The SGA question is asked weekly as follows: “In the past 7 days, have you had adequate relief of your IBS symptoms?” (Yes/No.) It is discovered that Subjects in the treatment group taking oral rifaximin respond “Yes” more often than Subjects who are not taking oral rifaximin. Another measure of efficacy is based on subjects' answers to the Weekly Subject Global Assessment (SGA) question over the 4 week study duration in relation to their IBS symptom of bloating. The SGA question is asked weekly as follows: “In the past 7 days, have you had adequate relief of your IBS symptom of bloating?” (Yes/No). […]

SMILES: COC1/C=C/OC2(C)Oc3c(C)c(O)c4c(O)c(c5c(nc6cc(C)ccn65)c4c3C2=O)NC(=O)/C(C)=C\C=C\C(C)C(O)C(C)C(O)C(C)C(OC(C)=O)C1C [RFX, (2S,16Z,18E,20S,21S,22R,23R,24R,25S,26S,27S,28E)-5,6,21,23,25 Pentahydroxy-27-methoxy-2,4,11,16,20,22,24,26-octamethyl-2,7-(epoxypentadeca-(1,11,13)trienimino)benzofuro(4,5-e)pyrido(1,2,-a)benzimidazole-1,15(2H)-dione,25-acetate]
- "Yes" responses to weekly SGA question on adequate relief of IBS symptom of bloating versus subjects not taking rifaximin: more often
- "Yes" responses to weekly SGA question on adequate relief of IBS symptoms versus subjects not taking rifaximin: more often
